The target of series [1] is FGFR3 (h) (Homo sapiens, UniProt P22607). The experiment in a line: FGFR3 (enzymatic assay), TR-FRET. The series is classed as biochemical. As to conditions: read-out: FGFR 3 pIC50 (converted). An excerpt:
Time-Resolved Fluorescence Resonance Energy Transfer (TR-FRET) signal (ex340 nm.
(In general: Time-resolved FRET reads energy transfer from a long-lived donor to a nearby acceptor.)

Series [2] concerns the target Ba/F3-FGFR4-transfected cells (Homo sapiens, UniProt P22455). The experiment in a line: Ba/F3-FGFR4 cellular proliferation assay, Alamar Blue. The series is classed as cell-based. The essentials: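 Proliferation of Ba/F3-FGFR4-transfected cells is gauged by Alamar Blue (resazurin) fluorescence after 24 hours of compound treatment in phenol red free RPMI-1640 with 10% FBS.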

Series [3] relates to Ba/F3-FGFR1-transfected cells. In words: Ba/F3-FGFR1 (plus IL3) cellular proliferation assay, counterscreen with 10 ng/ml murine IL3. The following applies: plus IL3 (10 ng/ml murine IL3, counterscreen); read-out: BAF3-FGFR1 (PLUS IL3) pIC50 (converted). The series is classed as cell-based. The essentials:
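Ba/F3-FGFR1 cells (20000/well) in RPMI-1640 with 10% FBS exposed to compound for 24 h at 37° C., 5% CO2, then Alamar Blue (resazurin) added for 4 h; fluorescence read at ex 540/em 590 nm. Counterscreen run identically with 10 ng/ml murine IL3.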
Background: A counterscreen serves to expose hits that act by an unwanted route or on another target.

Series [4] deals with FGFR1 (h) (Homo sapiens, UniProt P11362). In words: FGFR1 (enzymatic assay), TR-FRET. The series is classed as biochemical. As to conditions: read-out: FGFR 1 pIC50 (converted).
Series [5] concerns the target KDR (h) (Homo sapiens, UniProt P35968). In words: KDR (VEGFR2) (enzymatic assay), TR-FRET. The series is classed as biochemical. As to conditions: read-out: VEGFR 2 (KDR) pIC50 (converted). The essentials: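 First, kinase (150 ng/ml), Btn-Flt3 (500 nM), ATP (3 μM) and compound (1% DMSO) react 120 min at RT in pH 7.5 HEPES/6 mM MnCl2. Next, EDTA with Eu-anti-P-Tyr and SA-XL-665 stops it for 60 min. Finally, TR-FRET is read as RFU.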

Setting [6] is: average values if tested multiple times.

Read-outs that look alike come from different tables or passages of the source. Where only a bound is given, the exact number is not on record here.

Chain of Ba/F3-FGFR4-transfected cells (P22455 whole entry, change not shown): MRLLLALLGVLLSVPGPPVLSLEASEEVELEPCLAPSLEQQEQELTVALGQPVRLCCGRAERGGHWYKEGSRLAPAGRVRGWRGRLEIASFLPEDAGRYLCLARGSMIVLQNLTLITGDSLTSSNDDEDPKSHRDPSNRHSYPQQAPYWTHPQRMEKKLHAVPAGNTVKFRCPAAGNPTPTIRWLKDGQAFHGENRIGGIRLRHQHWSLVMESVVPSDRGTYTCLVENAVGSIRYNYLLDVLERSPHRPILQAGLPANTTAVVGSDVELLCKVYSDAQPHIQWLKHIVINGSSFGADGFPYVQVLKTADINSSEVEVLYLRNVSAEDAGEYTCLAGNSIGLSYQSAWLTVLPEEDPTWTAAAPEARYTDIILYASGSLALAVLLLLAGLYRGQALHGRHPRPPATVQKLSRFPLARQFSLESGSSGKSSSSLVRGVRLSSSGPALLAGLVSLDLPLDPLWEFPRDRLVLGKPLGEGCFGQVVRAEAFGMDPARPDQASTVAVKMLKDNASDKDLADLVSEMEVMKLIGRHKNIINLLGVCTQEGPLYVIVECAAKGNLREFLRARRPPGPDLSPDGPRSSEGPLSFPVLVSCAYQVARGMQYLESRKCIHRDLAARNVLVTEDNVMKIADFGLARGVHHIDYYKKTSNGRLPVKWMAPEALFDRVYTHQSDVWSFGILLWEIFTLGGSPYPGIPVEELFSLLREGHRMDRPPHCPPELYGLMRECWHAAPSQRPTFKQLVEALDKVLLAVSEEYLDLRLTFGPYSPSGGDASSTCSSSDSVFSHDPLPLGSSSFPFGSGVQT
Chain of FGFR1 (h) (P11362 22-822): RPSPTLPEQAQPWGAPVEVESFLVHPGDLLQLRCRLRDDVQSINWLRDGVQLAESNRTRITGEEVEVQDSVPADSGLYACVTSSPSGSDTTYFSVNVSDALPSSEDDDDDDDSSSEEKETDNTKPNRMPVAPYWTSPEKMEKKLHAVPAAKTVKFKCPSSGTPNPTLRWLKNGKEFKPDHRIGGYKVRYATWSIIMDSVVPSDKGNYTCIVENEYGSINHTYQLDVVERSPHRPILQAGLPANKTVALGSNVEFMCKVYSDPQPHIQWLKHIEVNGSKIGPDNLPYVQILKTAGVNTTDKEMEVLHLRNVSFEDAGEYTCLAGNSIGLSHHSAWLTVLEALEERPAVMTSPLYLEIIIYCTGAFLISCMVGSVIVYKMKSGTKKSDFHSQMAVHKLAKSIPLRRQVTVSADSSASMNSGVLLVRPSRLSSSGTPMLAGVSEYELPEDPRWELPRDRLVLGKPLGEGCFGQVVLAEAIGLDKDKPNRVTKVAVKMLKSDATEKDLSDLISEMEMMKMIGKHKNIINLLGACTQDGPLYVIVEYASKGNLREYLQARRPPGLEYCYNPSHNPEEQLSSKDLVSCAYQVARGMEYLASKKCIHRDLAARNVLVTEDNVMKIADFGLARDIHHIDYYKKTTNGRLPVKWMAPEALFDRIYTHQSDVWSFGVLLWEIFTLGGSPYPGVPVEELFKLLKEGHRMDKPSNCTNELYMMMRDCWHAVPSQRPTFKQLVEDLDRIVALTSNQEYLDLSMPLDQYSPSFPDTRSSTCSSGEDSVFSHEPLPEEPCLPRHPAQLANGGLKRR
Chain of FGFR3 (h) (P22607 23-806): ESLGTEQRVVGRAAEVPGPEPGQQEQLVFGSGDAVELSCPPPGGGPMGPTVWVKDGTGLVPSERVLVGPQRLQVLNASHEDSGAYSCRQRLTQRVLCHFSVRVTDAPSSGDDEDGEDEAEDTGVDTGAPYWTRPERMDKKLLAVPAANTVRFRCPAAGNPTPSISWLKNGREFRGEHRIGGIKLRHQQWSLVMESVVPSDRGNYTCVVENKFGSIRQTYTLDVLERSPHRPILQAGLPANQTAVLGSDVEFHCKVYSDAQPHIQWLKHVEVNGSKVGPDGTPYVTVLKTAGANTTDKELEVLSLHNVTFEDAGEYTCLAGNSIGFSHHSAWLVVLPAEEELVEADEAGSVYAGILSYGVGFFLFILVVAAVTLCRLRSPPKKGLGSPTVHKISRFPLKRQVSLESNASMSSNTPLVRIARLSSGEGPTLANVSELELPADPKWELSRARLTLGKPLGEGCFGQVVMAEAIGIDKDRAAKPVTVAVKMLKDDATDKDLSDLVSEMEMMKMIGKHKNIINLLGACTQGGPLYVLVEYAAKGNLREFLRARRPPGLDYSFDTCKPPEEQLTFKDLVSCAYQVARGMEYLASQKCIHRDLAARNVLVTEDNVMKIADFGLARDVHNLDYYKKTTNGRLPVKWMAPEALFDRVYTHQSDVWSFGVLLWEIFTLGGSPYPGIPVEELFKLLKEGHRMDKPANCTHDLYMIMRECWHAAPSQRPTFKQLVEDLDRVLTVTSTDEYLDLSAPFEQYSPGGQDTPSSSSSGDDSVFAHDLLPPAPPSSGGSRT
Chain of KDR (h) (P35968 20-1356): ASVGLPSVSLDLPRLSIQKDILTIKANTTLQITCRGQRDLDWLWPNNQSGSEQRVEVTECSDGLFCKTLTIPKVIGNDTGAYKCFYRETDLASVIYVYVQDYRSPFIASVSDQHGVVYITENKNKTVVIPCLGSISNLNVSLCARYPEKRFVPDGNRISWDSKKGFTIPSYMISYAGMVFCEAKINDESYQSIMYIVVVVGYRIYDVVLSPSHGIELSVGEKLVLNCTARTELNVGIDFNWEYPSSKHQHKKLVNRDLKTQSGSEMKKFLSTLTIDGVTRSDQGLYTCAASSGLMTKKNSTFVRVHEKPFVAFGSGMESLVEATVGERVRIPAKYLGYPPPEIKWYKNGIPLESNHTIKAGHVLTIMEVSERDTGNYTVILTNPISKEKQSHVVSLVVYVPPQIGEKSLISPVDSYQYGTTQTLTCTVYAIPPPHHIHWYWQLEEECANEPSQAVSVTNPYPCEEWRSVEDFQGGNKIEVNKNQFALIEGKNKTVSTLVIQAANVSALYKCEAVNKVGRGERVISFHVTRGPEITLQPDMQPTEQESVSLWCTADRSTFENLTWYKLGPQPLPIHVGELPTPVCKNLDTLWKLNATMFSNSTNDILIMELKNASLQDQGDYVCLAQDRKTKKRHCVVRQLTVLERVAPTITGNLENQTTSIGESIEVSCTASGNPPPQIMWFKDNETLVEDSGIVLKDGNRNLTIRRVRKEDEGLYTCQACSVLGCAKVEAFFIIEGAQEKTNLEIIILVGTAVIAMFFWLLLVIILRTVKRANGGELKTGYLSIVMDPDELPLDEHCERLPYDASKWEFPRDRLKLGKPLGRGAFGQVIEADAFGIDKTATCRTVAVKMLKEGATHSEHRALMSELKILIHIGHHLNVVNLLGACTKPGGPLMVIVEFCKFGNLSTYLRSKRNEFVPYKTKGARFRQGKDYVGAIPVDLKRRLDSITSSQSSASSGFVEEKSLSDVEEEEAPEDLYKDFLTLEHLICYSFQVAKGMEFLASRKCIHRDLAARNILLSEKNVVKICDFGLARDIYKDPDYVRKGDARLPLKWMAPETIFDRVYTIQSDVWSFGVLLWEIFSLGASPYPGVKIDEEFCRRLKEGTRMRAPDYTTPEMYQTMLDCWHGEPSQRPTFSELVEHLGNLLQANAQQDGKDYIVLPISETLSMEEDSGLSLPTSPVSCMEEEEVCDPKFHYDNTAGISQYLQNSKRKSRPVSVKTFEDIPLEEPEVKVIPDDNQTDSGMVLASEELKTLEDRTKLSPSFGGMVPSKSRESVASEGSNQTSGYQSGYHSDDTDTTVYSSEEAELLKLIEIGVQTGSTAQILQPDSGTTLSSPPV

A word on the melting point: it is the temperature, or range, at which the solid turns liquid. `COc1ccc(Cl)c(/N=c2\ccc3ncc(-c4cnn(C)c4)nc3n2CC2CCC(=O)N2)c1Cl` (single isomer, unassigned) [Compound 89] registered a melting point of 183 °C. Besides, the IC50 in series [1] (setting [6]) is 97.7 nM. The “BAF3-FGFR4 pIC50” value in series [2] is under 5. Moreover, the IC50 in series [3] is over 10000 nM. Further, in series [4] (setting [6]), the IC50 was 93.3 nM. Also, the IC50 in series [5] (setting [6]) was 339 nM.

In turn, `COc1cc(/N=c2\ccc3ncc(-c4cnn(C)c4)nc3n2CC(O)COC(C)C)c(F)c(OC)c1` (single isomer, unassigned) [Compound 77] returned a melting point of 96 to 97 °C. In addition, the IC50 in series [1] (setting [6]) was 1.78 nM. The “BAF3-FGFR4 pIC50” value in series [2] was determined as 6.46. In addition, in series [3], the IC50 was over 10000 nM. Moreover, the IC50 in series [4] (setting [6]) was 2.69 nM. Moreover, the IC50 in series [5] (setting [6]) was 28.8 nM.

Consider `COc1cc(OC)c(F)c(N(CC2CCCCO2)c2ccc3ncc(-c4cnn(C)c4)nc3n2)c1` (stereo not drawn) [Compound 139], for which the melting point is 94 °C. In series [1], the IC50 is 2.75 nM. Further, the “BAF3-FGFR4 pIC50” value in series [2] came to 6.61. The IC50 in series [3] was over 10000 nM. Also, the IC50 in series [4] was 3.16 nM. Besides, the IC50 in series [5] is 28.8 nM.

`COCC(O)CN(c1ccc2ncc(-c3cnn(C)c3)nc2n1)c1cc(OC)cc(OC)c1F` (single isomer, unassigned) [Compound 58] showed a melting point of 94 to 95 °C. Also, the IC50 in series [1] (setting [6]) was 1.26 nM. In addition, in series [2], the “BAF3-FGFR4 pIC50” value was determined as 7.09. Further, in series [3], the IC50 was over 10000 nM. In addition, in series [4] (setting [6]), the IC50 was 1.35 nM. In series [5] (setting [6]), the IC50 was 34.7 nM.

On to `COc1cc(/N=c2\ccc3ncc(-c4cnn(C)c4)nc3n2CC2CCC(=O)N2)c(F)c(OC)c1` (stereo not drawn) [Compound 45], for which the melting point came to 127 °C. Further, the IC50 in series [1] (setting [6]) is 1.35 nM. The “BAF3-FGFR4 pIC50” value in series [2] amounted to 6.59. For the same compound, in series [3], the IC50 is over 10000 nM. Moreover, in series [4] (setting [6]), the IC50 was 1.48 nM. The IC50 in series [5] (setting [6]) is 13.5 nM.

For `COCC(O)Cn1c(=Nc2c(F)c(OC)cc(OC)c2F)ccc2ncc(-c3cnn(C)c3)nc21` (stereo not drawn) [Compound 51], the melting point turned out to be 180 °C. In addition, the IC50 in series [1] (setting [6]) is 0.501 nM. Also, the “BAF3-FGFR4 pIC50” value in series [2] came to 7.77. Besides, the IC50 in series [3] is over 10000 nM. Besides, the IC50 in series [4] (setting [6]) is 0.589 nM. In series [5] (setting [6]), the IC50 is 7.76 nM.

In turn, `COCC(O)CN(c1ccc2ncc(-c3cnn(C)c3)nc2n1)c1c(F)c(OC)cc(OC)c1F` (stereo not drawn) [Compound 50] showed a melting point of 162 to 163 °C. Besides, the IC50 in series [1] (setting [6]) is 3.63 nM. In series [2], the “BAF3-FGFR4 pIC50” value was found to be 7.66. Also, the IC50 in series [3] is over 10000 nM. The IC50 in series [4] (setting [6]) was 1.74 nM. The IC50 in series [5] (setting [6]) was 21.9 nM.

`COc1cc(OC)cc(N(CC2CCCCO2)c2ccc3ncc(-c4cnn(C)c4)nc3n2)c1` (stereo not drawn) [Compound 129] registered a melting point of 137 °C. The IC50 in series [1] was 2.69 nM. Besides, the “BAF3-FGFR4 pIC50” value in series [2] was determined as 6.36. In addition, the IC50 in series [3] is over 10000 nM. The IC50 in series [4] is 3.47 nM. Besides, the IC50 in series [5] was 58.9 nM.

For `COc1cc(OC)c(Cl)c(/N=c2\ccc3ncc(-c4cnn(C)c4)nc3n2CC2CCC(=O)N2)c1Cl` (single isomer, unassigned) [Compound 87], the melting point is 160 °C. The IC50 in series [1] (setting [6]) is 4.57 nM. For the same compound, the “BAF3-FGFR4 pIC50” value in series [2] is listed as 5.89. In addition, the IC50 in series [3] was over 9120 nM. Besides, the IC50 in series [4] (setting [6]) was 4.07 nM. Moreover, the IC50 in series [5] (setting [6]) is 117 nM.

`COc1cc(OC)c(Cl)c(N(C[C@H]2CCC(=O)N2)c2ccc3ncc(-c4cnn(C)c4)nc3n2)c1Cl` [Compound 97] came in with a melting point of 150 °C. Besides, the IC50 in series [1] (setting [6]) is 4.68 nM. Further, the “BAF3-FGFR4 pIC50” value in series [2] was found to be 5.95. The IC50 in series [3] is over 10000 nM. In addition, the IC50 in series [4] (setting [6]) is 5.25 nM. In addition, the IC50 in series [5] (setting [6]) is 95.5 nM.

For the compound `COc1cc(O)cc(N(Cc2ncc[nH]2)c2ccc3ncc(-c4cnn(C)c4)nc3n2)c1F` [Compound 95], the melting point is 218 °C. The IC50 in series [1] (setting [6]) is 0.447 nM. For the same compound, the “BAF3-FGFR4 pIC50” value in series [2] is 8.03. For the same compound, the IC50 in series [3] is 7410 nM. The IC50 in series [4] (setting [6]) was 0.417 nM. Further, the IC50 in series [5] (setting [6]) was 2.75 nM.
